PMC8652888, “Angiogenesis, Anti-Tumor, and Anti-Metastatic Activity of Novel α-Substituted Hetero-Aromatic Chalcone Hybrids as Inhibitors of Microtubule Polymerization” (Frontiers in Chemistry, 2021)
Values joined by “and” are separate entries in the source; they are usually repeats but may differ in a detail not shown here. Equal entries are not always repeated.

What was measured:
[1] = tested on: intersegmental vessel (ISV) development, Tg (flk: EGFP) embryos; assay: Anti-angiogenic effect on zebrafish embryos; assay type: in vivo
Source text: Zebrafish embryo is a powerful model to study human diseases, and the transgenic zebrafish labeled with green fluorescent protein (GFP) in endothelial cells are always used to analyze angiogenesis activity in vivo ([Rocke et al., 2009]). Accordingly, we treated the transgenic Tg (flk: EGFP) embryos with different doses of 7m (0.5, 1, 2.5, 5 μΜ), and 30 hpf zebrafish was imaged by fluorescent microscopy to examine the effect on intersegmental vessel (ISV) development. […] When the concentration of 7m was elevated to 2.5 μΜ, the […] effect was more pronounced as evidenced by the 3.5- to 4-fold reduction in the number of SIVs.
The transgenic zebrafish Tg (flk: EGFP) embryos were paired normally and collected into a six-well plate (n = 30/well), then 1 ml of aquaculture water (0.2 g/L distilled water instant sea salt) was added and were raised at 28.5°C. When the zebrafish embryos developed to 12 hpf, the indicated concentrations of 7m were added, and 30 embryos were selected for each concentration gradient and incubated at 28.5°C to 30 hpf. At 30 hpf, the zebrafish embryos were imaged and photographed under a fluorescence microscope to observe the growth of blood vessels in the body, and the number of intersegmental blood vessels (ISV) was recorded.

MCF-7 cells = assay: Cell cycle analysis, flow cytometry with PI staining; assay type: cell-based, human; conditions: for G2/M cells: 24 h; for G0/G1, single runs / G0/G1 AVERAGE / G2/M, single runs / S AVERAGE / S, single runs / G2/M AVERAGE: flowjo raw data
Experimental: It is known that tubulin inhibitors block the cell cycle in the G2/M phase because of microtubule depolymerization and cytoskeleton disruption. Therefore, the effects of 7m on cell cycle progression of MCF-7 cells were analyzed by flow cytometry with PI staining. MCF-7 cells were treated with different concentrations (0, 100, 200, and 400 nM) of compound 7m for 24 h and 200 nM 7m at different times (0, 6, 12, and 24 h), respectively. […] When the concentration was increased to 200 and 400 nM, cells of 47% and 56% G2/M phase arrest were observed, respectively. Similarly, this phenomenon occurred after treatment with 200 nM 7m from 0 to 24 h.
MCF-7 cells were seeded into six-well plates (5 × 10^5 cells/well) and incubated at 37°C in a humidified 5% CO2 incubator for 24 h, and then treated with or without compound 7m at indicated concentrations (100, 200, 400 nM). The collected cells were fixed by adding 70% of ethanol at −20°C for 12 h. The cells were then washed with PBS, incubated with […] of RNase at 37°C for 30 min, and stained with […] of propidium iodide for 15 min, and finally subjected to flow cytometry.

3-(benzofuran-6-yl)-2-methyl-1-(3,4,5-trimethoxyphenyl)prop-2-en-1-one [Compound 7m]
number and length of SIVs vs vehicle control ([1]; 0.5 and 1 μΜ, 30 hpf): slightly reduced
ISVs formations ([1]; doses ≥5 μM): seriously impaired
developmental toxicity in embryos ([1]; doses ≥5 μM): developmental defects were observed
G2/M cells (MCF-7 cells; 100 nM): 26%
G0/G1, single runs (MCF-7 cells; 100nM): 61.76 and 47.12
G0/G1 AVERAGE (MCF-7 cells; 100nM): 54.44
G2/M, single runs (MCF-7 cells; 100nM): 15.14 and 28.34
S AVERAGE (MCF-7 cells; 100nM): 23.82
S, single runs (MCF-7 cells; 100nM): 23.1 and 24.54
G0/G1, single runs (MCF-7 cells; 200nM dose series): 40.1 and 25.72
G0/G1 AVERAGE (MCF-7 cells; 200nM dose series): 32.91
G2/M, single runs (MCF-7 cells; 200nM dose series): 40.78 and 56.03
S AVERAGE (MCF-7 cells; 200nM dose series): 18.685
S, single runs (MCF-7 cells; 200nM dose series): 19.12 and 18.25
G0/G1, single runs (MCF-7 cells; 200nM, 6h): 55.81 and 61.73
G0/G1 AVERAGE (MCF-7 cells; 200nM, 6h): 58.77
G2/M AVERAGE (MCF-7 cells; 200nM, 6h): 29.28
G2/M, single runs (MCF-7 cells; 200nM, 6h): 36.18 and 22.38
S AVERAGE (MCF-7 cells; 200nM, 6h): 15.51
G0/G1, single runs (MCF-7 cells; 200nM, 12h): 34.65 and 32.01
G0/G1 AVERAGE (MCF-7 cells; 200nM, 12h): 33.33
G2/M AVERAGE (MCF-7 cells; 200nM, 12h): 41.805
G2/M, single runs (MCF-7 cells; 200nM, 12h): 44.73 and 38.88
S AVERAGE (MCF-7 cells; 200nM, 12h): 25.405
S, single runs (MCF-7 cells; 200nM, 12h): 23.93 and 26.88
G2/M cells (MCF-7 cells; 200 nM, dose series (Fig 6A)): 47%
G0/G1, single runs (MCF-7 cells; 200nM, 24h): 6.61 and 3.51
G0/G1 AVERAGE (MCF-7 cells; 200nM, 24h): 5.06
G2/M AVERAGE (MCF-7 cells; 200nM, 24h): 91.725
G2/M, single runs (MCF-7 cells; 200nM, 24h): 93.1 and 90.35
S AVERAGE (MCF-7 cells; 200nM, 24h): 5.79
G0/G1, single runs (MCF-7 cells; 400nM): 16.1 and 15.39
G0/G1 AVERAGE (MCF-7 cells; 400nM): 15.745
G2/M AVERAGE (MCF-7 cells; 400nM): 67.3
G2/M, single runs (MCF-7 cells; 400nM): 66.98 and 67.62
S AVERAGE (MCF-7 cells; 400nM): 16.955
S, single runs (MCF-7 cells; 400nM): 16.92 and 16.99
